Measurements published in patent US11702404B2, “GLP-1R modulating compounds” (priority 2019, dated 2023).
Like-named read-outs stand apart in the source and are kept apart here.

How the values were obtained:
GLP-1R = GLP-1R (Homo sapiens, UniProt P43220); test: GLP-1R activation: cAMP increase in CHO cells stably expressing GLP-1R; type: cell-based
[1] = Microsomal stability, human liver microsomes (predicted hepatic clearance); conditions: predicted from in vitro microsomal stability data
[2] = cAMP increase, CHO cells stably expressing GLP-1R, 10 point dose response, 30 minutes incubation, read-out: EC50

Chain of GLP-1R (P43220 24-463): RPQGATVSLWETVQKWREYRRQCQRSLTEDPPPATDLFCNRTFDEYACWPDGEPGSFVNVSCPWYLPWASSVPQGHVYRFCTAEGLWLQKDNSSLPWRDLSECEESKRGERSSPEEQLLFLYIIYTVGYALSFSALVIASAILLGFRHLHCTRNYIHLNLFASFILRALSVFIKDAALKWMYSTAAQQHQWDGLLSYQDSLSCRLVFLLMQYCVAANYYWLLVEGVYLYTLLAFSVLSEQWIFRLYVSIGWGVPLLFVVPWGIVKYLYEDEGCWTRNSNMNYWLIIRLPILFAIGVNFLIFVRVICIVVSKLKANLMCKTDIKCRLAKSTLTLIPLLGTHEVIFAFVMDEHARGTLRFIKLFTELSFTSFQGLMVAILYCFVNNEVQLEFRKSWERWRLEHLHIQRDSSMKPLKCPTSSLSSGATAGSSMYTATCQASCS

EC50 (GLP-1R; [2]) [nM]	Predicted Hepatic Clearance (Pred. Cl.) [1] [mL/min/kg]	SMILES	EC50 (GLP-1R; EC50 (nM)) [nM]
0.61	1.83	O=C(O)c1ccc2nc(Cc3cc(F)c(-c4ccc(F)c(OCc5ccc(C(F)F)cc5F)n4)cc3F)n(CC34CC(CO3)C4)c2c1 [Example 772]	–
0.12	1.83	O=C(O)c1ccc2nc(Cc3ccc(-c4ccc(F)c(OCc5ccc(C(F)F)cc5F)n4)cc3F)n(C[C@@H]3CCO3)c2c1 [Example 773]	–
0.06	2.08	O=C(O)c1cc(F)c2nc(Cc3ccc(-c4ccc(F)c(OCc5ccc(C(F)F)cc5F)n4)cc3F)n(C[C@@H]3CCO3)c2c1 [Example 774]	–
0.1	3.17	N#Cc1ccc(COc2cccc(-c3cc(CO)c(Cc4nc5ccc(C(=O)O)cc5n4C[C@@H]4CCO4)cc3F)n2)c(F)c1 [Example 775]	–
26.9	3.17	N#Cc1cc(F)c(COc2cccc(-c3ccc(Cc4nc5c(F)cc(C(=O)O)cc5n4C[C@@H]4CCO4)cc3F)n2)cc1F [Example 776]	–
0.73	4.5	N#Cc1ccc(COc2ccnc(-c3ccc(Cc4nc5ccc(C(=O)O)cc5n4C[C@@H]4CCO4)cc3F)n2)c(F)c1 [Example 777]	–
0.13	3.67	N#Cc1ccc(COc2ccnc(-c3cc(F)c(Cc4nc5c(F)cc(C(=O)O)cc5n4C[C@@H]4CCO4)cc3F)n2)c(F)c1 [Example 778]	–
0.17	1.83	N#Cc1ccc(COc2nc(-c3cc(F)c(Cc4nc5c(F)cc(C(=O)O)cc5n4C[C@@H]4CCO4)cc3F)ccc2F)cn1 [Example 779]	–
0.12	1.83	N#Cc1ccc(COc2nc(-c3ccc(Cc4nc5c(F)cc(C(=O)O)cc5n4C[C@@H]4CCO4)cc3F)ccc2F)c(F)c1 [Example 780]	–
0.03	3.17	O=C(O)c1cc(F)c2nc(Cc3cc(F)c(-c4nc(OCc5ccc(C(F)(F)F)cc5F)ccc4F)cc3F)n(C[C@@H]3CCO3)c2c1 [Example 781]	–
3.31	11.2	N#Cc1ccc(COc2ccc(F)c(-c3cc(F)c(Cc4nc5c(F)cc(C(=O)O)cc5n4CC45COC(C4)C5)cc3F)n2)c(F)c1 [Example 782]	–
0.11	1.83	O=C(O)c1cc(F)c2nc(Cc3cc(F)c(-c4cccc(OCc5ccc(C(F)(F)F)cc5F)n4)cc3F)n(Cc3ncco3)c2c1 [Example 783]	–
0.55	1.83	N#Cc1cc(F)c(COc2cccc(-c3cc(F)c(Cc4nc5c(F)cc(C(=O)O)cc5n4Cc4ncco4)cc3F)n2)cc1F [Example 784]	–
0.05	1.83	O=C(O)c1ccc2nc(Cc3cc(F)c(-c4ccnc(OCc5ccc(C(F)(F)F)cc5F)n4)cc3F)n(C[C@@H]3CCO3)c2c1 [Example 785]	–
0.22	1.83	N#Cc1cc(F)c(COc2nccc(-c3cc(F)c(Cc4nc5ccc(C(=O)O)cc5n4C[C@@H]4CCO4)cc3F)n2)cc1F [Example 786]	–
0.17	5.5	O=C(O)c1ccc2nc(Cc3ccc(-c4ccnc(OCc5ccc(C(F)(F)F)cc5F)n4)c(F)c3)n(C[C@@H]3CCO3)c2c1 [Example 788]	–
1.18	5.67	N#Cc1cc(F)c(COc2nccc(-c3ccc(Cc4nc5ccc(C(=O)O)cc5n4C[C@@H]4CCO4)cc3F)n2)cc1F [Example 789]	–
0.44	3	O=C(O)c1ccc2nc(Cc3ccc(-c4ccnc(OCc5ccc(C(F)F)cc5F)n4)c(F)c3)n(C[C@@H]3CCO3)c2c1 [Example 790]	–
2.75	4.83	COCCn1c(Cc2cc(F)c(-c3nc(OCc4ccc(C#N)cc4F)ccc3F)cc2F)nc2c(F)cc(C(=O)O)cc21 [Example 791]	–
0.04	6.17	N#Cc1ccc(COc2ccc(F)c(-c3cc(F)c(Cc4nc5c(F)cc(C(=O)O)cc5n4C[C@@H]4CCO4)cc3F)n2)c(F)c1 [Example 792]	–
0.17	5.67	N#Cc1ccc(COc2ccc(F)c(-c3cc(F)c(Cc4nc5ccc(C(=O)O)cc5n4C[C@@H]4CCO4)cc3F)n2)c(F)c1 [Example 793]	–
0.97	6.17	N#Cc1ccc(COc2ccc(F)c(-c3ccc(Cc4nc5ccc(C(=O)O)cc5n4C[C@@H]4CCO4)cc3)n2)c(F)c1 [Example 794]	–
0.65	1.83	N#Cc1ccc(COc2nc(-c3ccc(Cc4nc5ccc(C(=O)O)cc5n4C[C@@H]4CCO4)cc3)ccc2F)c(F)c1 [Example 795]	–
0.03	1.83	N#Cc1cc(F)c(COc2cccc(-c3cc(F)c(Cc4nc5c(F)cc(C(=O)O)cc5n4C[C@@H]4CCO4)cc3F)n2)cc1F [Example 796]	–

EC50 (GLP-1R; [2]) [nM]	Predicted Hepatic Clearance (Pred. Cl.) [1] [mL/min/kg]	SMILES	EC50 (GLP-1R; EC50 (nM)) [nM]
0.27	7.17	N#Cc1ccc(COc2ccc(F)c(-c3ccc(Cc4nc5ccc(C(=O)O)cc5n4C[C@@H]4CCO4)c(F)c3)n2)c(F)c1 [Example 797]	–
0.12	5.33	N#Cc1cc(F)c(COc2cccc(-c3cc(F)c(Cc4nc5ccc(C(=O)O)cc5n4C[C@@H]4CCO4)cc3F)n2)cc1F [Example 798]	–
135	2.67	COCCn1c(Cc2cc(F)c(-c3cccc(OCc4ccc(C#N)cc4)n3)cc2F)nc2c(F)cc(C(=O)O)cc21 [Example 799]	–
0.1	1.83	O=C(O)c1ccc2nc(Cc3cc(F)c(-c4cccc(OCc5ccc(C(F)F)cc5F)n4)cc3F)n(C[C@@H]3CCO3)c2c1 [Example 800]	–
0.12	3.17	O=C(O)c1ccc2nc(Cc3cc(F)c(-c4ccnc(OCc5ccc(C(F)F)cc5F)n4)cc3F)n(C[C@@H]3CCO3)c2c1 [Example 801]	–
3.64	2.33	COCCn1c(Cc2cc(F)c(-c3cccc(OCc4ccc(Cl)c(F)c4F)n3)cc2F)nc2ccc(C(=O)O)cc21 [Example 802]	–
5.95	13.3	COCCn1c(Cc2cc(F)c(-c3cccc(OCc4ccc(C)cn4)n3)cc2F)nc2ccc(C(=O)O)cc21 [Example 803]	–
43.6	11.5	COCCn1c(Cc2cc(F)c(-c3cccc(OCc4cc(C#N)cs4)n3)cc2F)nc2ccc(C(=O)O)cc21 [Example 804]	–
7.12	12	COCCn1c(Cc2cc(F)c(-c3cccc(OCc4ccc(C#N)s4)n3)cc2F)nc2ccc(C(=O)O)cc21 [Example 805]	–
0.54	7.17	O=C(O)c1ccc2nc(Cc3ccc(-c4cccc(OCc5ccc(Cl)nc5)n4)c(F)c3)n(C[C@@H]3CCO3)c2c1 [Example 806]	–
0.18	3.33	N#Cc1ccc(COc2cccc(-c3cc(F)c(Cc4nc5ccc(C(=O)O)cc5n4C[C@@H]4CCO4)cc3F)n2)cn1 [Example 807]	–
0.05	3.5	O=C(O)c1ccc2nc(Cc3cc(F)c(-c4cccc(OCc5ccc(Cl)cc5)n4)cc3F)n(C[C@@H]3CCO3)c2c1 [Example 808]	–
1.05	2.83	COCCn1c(Cc2cc(F)c(-c3cccc(OCc4ccc(C(F)F)cc4)n3)cc2F)nc2ccc(C(=O)O)cc21 [Example 809]	–
0.33	6.83	COCCn1c(Cc2cc(F)c(-c3cccc(OCc4ccc(C)cc4F)n3)cc2F)nc2ccc(C(=O)O)cc21 [Example 810]	–
3.57	10	COCCn1c(Cc2cc(F)c(-c3cccc(OCc4ccc(C)nc4)n3)cc2F)nc2ccc(C(=O)O)cc21 [Example 811]	–
24.9	1.83	COCCn1c(Cc2cc(F)c(-c3cccc(OCc4ccc(F)nc4)n3)cc2F)nc2ccc(C(=O)O)cc21 [Example 812]	–
2.98	1.83	COCCn1c(Cc2cc(F)c(-c3cccc(OCc4ccc(Cl)nc4)n3)cc2F)nc2ccc(C(=O)O)cc21 [Example 813]	–
2.14	6.17	COCCn1c(Cc2cc(F)c(-c3cccc(OCc4ccc(C)cc4)n3)cc2F)nc2ccc(C(=O)O)cc21 [Example 814]	–
2.49	1.83	COCCn1c(Cc2cc(F)c(-c3cccc(OCc4ccc(F)cc4F)n3)cc2F)nc2ccc(C(=O)O)cc21 [Example 815]	–
1	9.5	COCCn1c(Cc2cc(F)c(-c3cccc(OCc4ccc(F)cc4C)n3)cc2F)nc2ccc(C(=O)O)cc21 [Example 816]	–
10.3	9	COCCn1c(Cc2cc(F)c(-c3cccc(OCc4ccc(CC#N)cc4)n3)cc2F)nc2ccc(C(=O)O)cc21 [Example 817]	–
4.3	6	COCCn1c(Cc2cc(F)c(-c3cccc(OCc4ccc(F)cc4Cl)n3)cc2F)nc2ccc(C(=O)O)cc21 [Example 818]	–
0.86	3.17	O=C(O)c1ccc2nc(Cc3cc(F)c(-c4cccc(OCc5ccc(Cl)cc5)n4)cc3F)n(Cc3ncco3)c2c1 [Example 819]	–
14.8	2.67	COCCn1c(Cc2cc(F)c(-c3cccc(OCc4ccc(Cl)nc4C)n3)cc2F)nc2ccc(C(=O)O)cc21 [Example 821]	–

SMILES	EC50 (GLP-1R; [2]) [nM]	Predicted Hepatic Clearance (Pred. Cl.) [1] [mL/min/kg]	EC50 (GLP-1R; EC50 (nM)) [nM]
COCCn1c(Cc2cc(F)c(-c3cccc(OCc4ccc(C#N)nc4)n3)cc2F)nc2ccc(C(=O)O)cc21 [Example 820]	–	2.67	11.5
